Assay results: patent US10543212B2, “Substituted amines for treating cardiac diseases” (Cardurion Pharmaceuticals, LLC, priority 2017, dated 2020)
Counter-ions that a name gives are not always drawn.

The compounds below were run against T1, Human full-length CaMKIIδ (Homo sapiens, UniProt Q13557) (assay: Human CaMKII enzyme inhibition assay (radiometric kinase assay)). Settings: 3 μM compound; 500 nM ATP; 0.5 nM CaMKIIδ.
T1 construct: Human full-length CaMKIIδ (Cat #02-111) was obtained from Carna Biosciences; GST; purchased Carna Biosciences 02-111
Format: biochemical
Method: In Vitro CaMKIIδ Inhibitory Activity was Evaluated by an Enzyme Assay.
Human CaMKII Enzyme Inhibition Assay
Kinase assay for CaMKIIs was performed using the radiometric assay. Human full-length CaMKIIδ (Cat #02-111) was obtained from Carna Biosciences (Kobe, Japan).
Enzyme reactions were performed in 25 mM HEPES, pH 7.5, with 5 mM magnesium chloride, 1 mM calcium chloride, 10 μg/mL Calmodulin, 2 mM DTT, 0.01% Tween20 and 500 nM ATP (0.2 μCi/well of [γ-33P] ATP) containing 0.5 nM CaMKIIδ and 0.1 μM autophosphorylation peptide (KKALRRQETVDAL)(Toray Research Center).
After incubating the enzyme, peptide, and compounds for 5 min, kinase reactions were initiated by adding ATP, followed by incubation for 60 min at room temperature in a total volume of 50 μL. The reactions were terminated by the addition of 10% trichloroacetic acid (final concentration). The [γ-33P]-phosphorylated proteins were filtered in a Harvest Plate (Merck Millipore) with a Cell Harvester (PerkinElmer) and then free [γ-33P] ATP was washed out with 3% phosphoric acid. The plates were dried, followed by the addition of 40 μl of MicroScintO (PerkinElmer). The radioactivity was counted by a TopCount scintillation counter (PerkinElmer). The signals of the reaction without enzyme were defined as 100% inhibitory activity and those of the reaction without inhibitors as 0% inhibitory activity. In vitro CaMKIIδ inhibitory activity was evaluated by % inhibitory activity of 3 μM compound concentration.

| CaMKIIδ inhibitory activity (%) at 3 μM | Structure (SMILES) |
| --- | --- |
| 99% | COc1cc(N2CCC(N3CCOCC3)CC2)ccc1Nc1ncc(-c2ccc(C#N)c(O[C@@H](C)Cn3cnnn3)c2)cn1 [Example 9, 4-(2-((2-methoxy-4-(4-(morpholin-4-yl)piperidin-1-yl)phenyl)amino)pyrimidin-5-yl)-2-(((2S)-1-(1H-tetrazol-1-yl)propan-2-yl)oxy)benzonitrile] |

Same assay, conditions: 3 μM compound; 500 nM ATP; 0.5 nM CaMKIIδ; hydrochloride

| CaMKIIδ inhibitory activity (%) at 3 μM | Structure (SMILES) |
| --- | --- |
| 98% | COc1cc(N2CCC(N3CCOCC3)CC2)ccc1Nc1ncc(-c2ccc(C#N)c(O[C@@H](C)Cn3cncn3)c2)cn1 [Example 8, 4-(2-((2-methoxy-4-(4-(morpholin-4-yl)piperidin-1-yl)phenyl)amino)pyrimidin-5-yl)-2-(((2S)-1-(1H-1,2,4-triazol-1-yl)propan-2-yl)oxy)benzonitrile hydrochloride] |

Same assay, conditions: 3 μM compound; 500 nM ATP; 0.5 nM CaMKIIδ; read-out: CaMKIIδ inhibitory activity (%) at 3 μM

| inhibition at 3 µM | Structure (SMILES) |
| --- | --- |
| 95% | COc1cc(C(=O)N2CC3(CN(C)C3)C2)ccc1Nc1ncc(-c2ccc(C#N)c(O[C@@H](C)Cn3cncn3)c2)cn1 [Example 147, 4-(2-((2-methoxy-4-((6-methyl-2,6-diazaspiro[3.3]hept-2-yl)carbonyl)phenyl)ami-no)pyrimidin-5-yl)-2-(((2S)-1-(1H-1,2,4-triazol-1-yl)propan-2-yl)oxy)benzonitrile] |
| 98% | C[C@@H](Cn1cncn1)Oc1cc(-c2cnc(Nc3cnn(CC(C)(C)C#N)c3)nc2)ccc1C#N [Example 365, 4-(2-((1-(2-cyano-2-methylpropyl)-1H-pyrazol-4-yl)amino)pyrimidin-5-yl)-2-(((2S)-1-(1H-1,2,4-triazol-1-yl)propan-2-yl)oxy)benzonitrile] |
| 98% | COc1cc(N2CCC(N3CCOCC3)CC2)ccc1Nc1ncc(-c2ccc(C#N)c(O[C@@H](C)Cn3ccnc3)c2)cn1 [Example 39, 2-(((2S)-1-(1H-imidazol-1-yl)propan-2-yl)oxy)-4-(2-((2-methoxy-4-(4-(morpholin-4-yl)piperidin-1-yl)phenyl)amino)pyrimidin-5-yl)benzonitrile] |
| 82% | Cn1cc(Nc2ncc(-c3ccc(C#N)c(O[C@@H](CO)Cn4cccn4)c3)cn2)cn1 [Example 402, 2-(((2R)-1-hydroxy-3-(1H-pyrazol-1-yl)propan-2-yl)oxy)-4-(2-((1-methyl-1H-pyrazol-4-yl)amino)pyrimidin-5-yl)benzonitrile] |
| 96% | Cc1nn(C)cc1Nc1ncc(-c2ccc(C#N)c(O[C@@H](C)Cn3cncn3)c2)cn1 [Example 357, 4-(2-((1,3-dimethyl-1H-pyrazol-4-yl)amino)pyrimidin-5-yl)-2-(((2S)-1-(1H-1,2,4-triazol-1-yl)propan-2-yl)oxy)benzonitrile] |
| 99% | COc1cc(N2CCC(N3CCCCC3)CC2)ccc1Nc1ncc(-c2ccc(C#N)c(O[C@@H](C)Cn3cnnn3)c2)cn1 [Example 45, 4-(2-((4-(1,4′-bipiperidine-1′-yl)-2-methoxyphenyl)amino)pyrimidin-5-yl)-2-(((2S)-1-(1H-tetrazol-1-yl)propan-2-yl)oxy)benzonitrile] |
| 100% | COc1cc(C(=O)N2CC3(CN(C)C3)C2)ccc1Nc1ncc(-c2ccc(C#N)c(O[C@@H](C)Cn3cnnn3)c2)cn1 [Example 172, 4-(2-((2-methoxy-4-((6-methyl-2,6-diazaspiro[3.3]hept-2-yl)carbonyl)phenyl)ami-no)pyrimidin-5-yl)-2-(((2S)-1-(1H-tetrazol-1-yl)propan-2-yl)oxy)benzonitrile] |
| 99% | COc1ccccc1Nc1ncc(-c2ccc(C#N)c(O[C@@H](C)Cn3cnnn3)c2)cn1 [Example 16, 4-(2-((2-methoxy-phenyl)amino)pyrimidin-5-yl)-2-(((2S)-1-(1H-tetrazol-1-yl)propan-2-yl)oxy)benzonitrile] |
| 97% | C[C@@H](Cn1cncn1)Oc1cc(-c2cnc(Nc3cn(C)nc3C(F)(F)F)nc2)ccc1C#N [Example 376, 4-(2-((1-methyl-3-(trifluoromethyl)-1H-pyrazol-4-yl)amino)pyrimidin-5-yl)-2-(((2S)-1-(1H-1,2,4-triazol-1-yl)propan-2-yl)oxy)benzonitrile] |
| 97% | CC(C)n1cc(Nc2ncc(-c3ccc(C#N)c(O[C@@H](C)Cn4cnnn4)c3)cn2)cn1 [Example 374, 4-(2-((1-isopropyl-1H-pyrazol-4-yl)amino)pyrimidin-5-yl)-2-(((2S)-1-(1H-tetrazol-1-yl)propan-2-yl)oxy)benzonitrile] |
| 97% | COc1cc(N2CCN(C3COC3)CC2)ccc1Nc1ncc(-c2ccc(Cl)c(O[C@@H](C)Cn3cnnn3)c2)cn1 [Example 197, 5-(4-chloro-3-(((2S)-1-(1H-tetrazol-1-yl)propan-2-yl)oxy)phenyl)-N-(2-methoxy-4-(4-(oxetan-3-yl)piperazin-1-yl)phenyl)pyrimidin-2-amine] |
| 98% | C[C@@H](Cn1cncn1)Oc1cc(-c2cnc(Nc3cnn(C(C)(C)C)c3)nc2)ccc1C#N [Example 373, 4-(2-((1-tert-butyl-1H-pyrazol-4-yl)amino)pyrimidin-5-yl)-2-(((2S)-1-(1H-1,2,4-triazol-1-yl)propan-2-yl)oxy)benzonitrile] |
| 99% | COc1cc(N2CCN(C3COC3)CC2)ccc1Nc1ncc(-c2ccc(C#N)c(O[C@@H](C)Cn3cnnn3)c2)cn1 [Example 192, 4-(2-((2-methoxy-4-(4-(oxetan-3-yl)piperazin-1-yl)phenyl)ami-no)pyrimidin-5-yl)-2-(((2S)-1-(1H-tetrazol-1-yl)propan-2-yl)oxy)benzonitrile] |
| 99% | COc1cc(N2CCC(N3CCOCC3)CC2)c(F)cc1Nc1ncc(-c2ccc(Cl)c(O[C@@H](C)Cn3cnnn3)c2)cn1 [Example 205, 5-(4-chloro-3-(((2S)-1-(1H-tetrazol-1-yl)propan-2-yl)oxy)phenyl)-N-(5-fluoro-2-methoxy-4-(4-(morpholin-4-yl)piperidin-1-yl)phenyl)pyrimidin-2-amine] |
| 96% | COc1ccccc1Nc1ncc(-c2ccc(C#N)c(O[C@@H](C)Cn3cncn3)c2)cn1 [Example 2, 4-(2-((2-methoxy-phenyl)amino)pyrimidin-5-yl)-2-(((2S)-1-(1H-1,2,4-triazol-1-yl)propan-2-yl)oxy)benzonitrile] |
| 98% | COc1cc(C(=O)N2CCC(OC)CC2)ccc1Nc1ncc(-c2ccc(C#N)c(O[C@@H](C)Cn3cnnn3)c2)cn1 [Example 152, 4-(2-((2-methoxy-4-((4-methoxypiperidin-1-yl)carbonyl)phenyl)ami-no)pyrimidin-5-yl)-2-(((2S)-1-(1H-tetrazol-1-yl)propan-2-yl)oxy)benzonitrile] |
| 99% | COc1cc(C2CCNCC2)ccc1Nc1ncc(-c2ccc(C#N)c(O[C@@H](C)Cn3cncn3)c2)cn1 [Example 50, 4-(2-((2-methoxy-4-(piperidin-4-yl)phenyl)amino)pyrimidin-5-yl)-2-(((2S)-1-(1H-1,2,4-triazol-1-yl)propan-2-yl)oxy)benzonitrile] |
| 99% | COc1cc(N2CCC(N3CCOCC3)CC2)ccc1Nc1ncc(-c2ccc(Cl)c(O[C@@H](C)Cn3ccnc3)c2)cn1 [Example 58, 5-(4-chloro-3-(((2S)-1-(1H-imidazol-1-yl)propan-2-yl)oxy)phenyl)-N-(2-methoxy-4-(4-(morpholin-4-yl)piperidin-1-yl)phenyl)pyrimidin-2-amine] |
| 99% | COc1cc(N2CCC(N3CCOCC3)CC2)ccc1Nc1ncc(-c2ccc(C#N)c(O[C@@H](C)Cn3cncn3)c2)cn1 [Example 1, 4-(2-((2-methoxy-4-(4-(morpholin-4-yl)piperidin-1-yl)phenyl)amino)pyrimidin-5-yl)-2-(((2S)-1-(1H-1,2,4-triazol-1-yl)propan-2-yl)oxy)benzonitrile] |
| 98% | Cc1nn(C)cc1Nc1ncc(-c2ccc(C#N)c(O[C@@H](C)Cn3cnnn3)c2)cn1 [Example 372, 4-(2-((1,3-dimethyl-1H-pyrazol-4-yl)amino)pyrimidin-5-yl)-2-(((2S)-1-(1H-tetrazol-1-yl)propan-2-yl)oxy)benzonitrile] |
| 98% | COc1cc(C(=O)N2CCOCC2)ccc1Nc1ncc(-c2ccc(C#N)c(O[C@@H](C)Cn3cnnn3)c2)cn1 [Example 82, 4-(2-((2-methoxy-4-(morpholin-4-ylcar-bonyl)phenyl)amino)pyrimidin-5-yl)-2-(((2S)-1-(1H-tetrazol-1-yl)propan-2-yl)oxy)benzonitrile] |
| 98% | COc1cc(N2CCC(N3CCOCC3)CC2)ccc1Nc1ncc(-c2ccc(C#N)c(O[C@@H](C)Cn3ncnn3)c2)cn1 [Example 5, 4-(2-((2-methoxy-4-(4-(morpholin-4-yl)piperidin-1-yl)phenyl)amino)pyrimidin-5-yl)-2-(((2S)-1-(2H-tetrazol-2-yl)propan-2-yl)oxy)benzonitrile] |

| Structure (SMILES) | inhibition at 3 µM |
| --- | --- |
| COc1cc(N2CCC(N3C4CCC3COC4)CC2)ccc1Nc1ncc(-c2ccc(Cl)c(O[C@@H](C)Cn3cnnn3)c2)cn1 [Example 210, 5-(4-chloro-3-(((2S)-1-(1H-tetrazol-1-yl)propan-2-yl)oxy)phenyl)-N-(2-methoxy-4-(4-(3-oxa-8-azabicyclo[3.2.1]oct-8-yl)piperidin-1-yl)phenyl)pyrimidin-2-amine] | 100% |
